Toxic doses and inconclusive results are not listed. Rule as the data show it: active = T/C of 150% or more; inactive = T/C below 125%.
Test system: L1210 leukemia ip in BDF1 mice, survival T/C
Assay: NCI In Vivo Anticancer Drug Screen. Data for tumor model L1210 Leukemia (intraperitoneal) in B6D2F1 (BDF1) mice
Details: endpoint: mean survival time, higher = longer survival
How it was run: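 Tumor was transplanted into mice, which were then dosed with test compound or vehicle alone. Survival was recorded for each group, and the treated figure was expressed relative to the control figure.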

[1] = dose: 100.0 mg/kg/injection, schedule: Q04DX002 (ip), vehicle: Klucel (hydroxypropylcellulose) (HPC)
[2] = dose: 200.0 mg/kg/injection, schedule: Q04DX002 (ip), vehicle: Klucel (hydroxypropylcellulose) (HPC)
[3] = dose: 100.0 mg/kg/injection, schedule: Q01DX001 (ip), vehicle: carboxymethylcellulose (CMC)
[4] = dose: 200.0 mg/kg/injection, schedule: Q01DX001 (ip), vehicle: carboxymethylcellulose (CMC)

Measured: T/C

CCCCNC(=O)NCCN(C)c1ccccc1
inactive: [1] 94 % of control | [2] 97 % of control | dose: 400.0 mg/kg/injection, schedule: Q04DX002 (ip), vehicle: Klucel (hydroxypropylcellulose) (HPC) 102 % of control

COc1ccc(C(=O)CC(C)C(=O)O)c(O)c1C (configuration not stated)
inactive: dose: 100.0 mg/kg/injection, schedule: Q04DX003 (ip), vehicle: Klucel (hydroxypropylcellulose) (HPC) 95 % of control | dose: 200.0 mg/kg/injection, schedule: Q04DX003 (ip), vehicle: Klucel (hydroxypropylcellulose) (HPC) 98 % of control | dose: 400.0 mg/kg/injection, schedule: Q04DX003 (ip), vehicle: Klucel (hydroxypropylcellulose) (HPC) 96 % of control

N=C(CNC(=O)OCc1ccccc1)N1CCCC1C(=O)O (configuration not stated)
inactive: dose: 100.0 mg/kg/injection, schedule: Q04DX003 (ip), vehicle: saline with Tween-80 100 % of control | dose: 200.0 mg/kg/injection, schedule: Q04DX003 (ip), vehicle: saline with Tween-80 101 % of control | dose: 400.0 mg/kg/injection, schedule: Q04DX003 (ip), vehicle: saline with Tween-80 101 % of control

CCCC1(CCC)OOC(CCC)(CCC)OO1
inactive: dose: 50.0 mg/kg/injection, schedule: Q01DX009 (ip), vehicle: saline with Tween-80 96 % of control | dose: 100.0 mg/kg/injection, schedule: Q01DX009 (ip), vehicle: saline with Tween-80 96 % of control | dose: 200.0 mg/kg/injection, schedule: Q01DX009 (ip), vehicle: saline with Tween-80 110 % of control

O=C(C#Cc1ccccc1)OCC#Cc1ccccc1
inactive: dose: 100.0 mg/kg/injection, schedule: Q01DX001 (ip), vehicle: saline 102 % of control | dose: 200.0 mg/kg/injection, schedule: Q01DX001 (ip), vehicle: saline 96 % of control | dose: 400.0 mg/kg/injection, schedule: Q01DX001 (ip), vehicle: saline 94 % of control

CCN(CC)CCCCCCNc1ccnc2cc(Cl)ccc12
inactive: dose: 50.0 mg/kg/injection, schedule: Q01DX001 (ip), vehicle: carboxymethylcellulose (CMC) 95 % of control

O=c1[nH]c2c(Br)c([N+](=O)[O-])c(Br)cc2c2ccc(Br)cc12
inactive: [3] 100 % of control | [4] 98 % of control | dose: 400.0 mg/kg/injection, schedule: Q01DX001 (ip), vehicle: carboxymethylcellulose (CMC) 91 % of control

[N-]=[N+]=NC(=O)C1C2CC3C(C2)C31 (configuration not stated)
inactive: [3] 95 % of control | [4] 88 % of control

O=C(O)C(=C(c1ccccc1)c1ccccc1)c1cccc2ccccc12
inactive: dose: 50.0 mg/kg/injection, schedule: Q04DX002 (ip), vehicle: Klucel (hydroxypropylcellulose) (HPC) 98 % of control | dose: 100.0 mg/kg/injection, schedule: Q01DX009 (ip), vehicle: Klucel (hydroxypropylcellulose) (HPC) 101 % of control | [1] 100 % of control | [2] 100 % of control

C[CH2][Pb]([CH2]C)([CH2]C)[O]C(=O)COc1ccccc1
inactive: dose: 0.75 mg/kg/injection, schedule: Q01DX009 (ip), vehicle: Klucel (hydroxypropylcellulose) (HPC) 98 % of control | dose: 0.75 mg/kg/injection, schedule: Q04DX003 (ip), vehicle: saline with Tween-80 96 % of control | dose: 1.5 mg/kg/injection, schedule: Q01DX009 (ip), vehicle: Klucel (hydroxypropylcellulose) (HPC) 95 % of control | dose: 1.5 mg/kg/injection, schedule: Q04DX003 (ip), vehicle: saline with Tween-80 95 % of control | dose: 3.0 mg/kg/injection, schedule: Q01DX009 (ip), vehicle: Klucel (hydroxypropylcellulose) (HPC) 106 % of control | dose: 3.0 mg/kg/injection, schedule: Q04DX003 (ip), vehicle: saline with Tween-80 101 % of control | dose: 6.0 mg/kg/injection, schedule: Q01DX009 (ip), vehicle: Klucel (hydroxypropylcellulose) (HPC) 102 % of control | dose: 6.0 mg/kg/injection, schedule: Q04DX003 (ip), vehicle: saline with Tween-80 91 % of control | dose: 12.0 mg/kg/injection, schedule: Q04DX003 (ip), vehicle: saline with Tween-80 101 % of control | dose: 12.5 mg/kg/injection, schedule: Q04DX002 (ip), vehicle: Klucel (hydroxypropylcellulose) (HPC) 103 % of control | dose: 25.0 mg/kg/injection, schedule: Q04DX002 (ip), vehicle: Klucel (hydroxypropylcellulose) (HPC) 97 % of control

O=C(O)CCCC1CCC(=O)CC1
inactive: dose: 100.0 mg/kg/injection, schedule: Q04DX003 (ip), vehicle: saline 109 % of control | dose: 200.0 mg/kg/injection, schedule: Q04DX003 (ip), vehicle: saline 96 % of control | dose: 400.0 mg/kg/injection, schedule: Q04DX003 (ip), vehicle: saline 100 % of control

O=C(O)CSC1(SCC(=O)O)CCCCC1
inactive: dose: 100.0 mg/kg/injection, schedule: Q01DX001 (ip), vehicle: Klucel (hydroxypropylcellulose) (HPC) 103 % of control | dose: 200.0 mg/kg/injection, schedule: Q01DX001 (ip), vehicle: Klucel (hydroxypropylcellulose) (HPC) 97 % of control | dose: 400.0 mg/kg/injection, schedule: Q01DX001 (ip), vehicle: Klucel (hydroxypropylcellulose) (HPC) 97 % of control

Reference: PubChem BioAssay AID248 (DTP/NCI, 2004)
